Test results from the supplement of paper PMC10307832.

Tests used:
Test in all cases: relative viability (nuclei count vs DMSO), 5 days (fraction); higher = more cells survive
[1] = compound: C1=CC=C2C(=C1)N=C(S2)C(C#N)C3=NC(=NC=C3)NCCC4=CN=CC=C4 + O=C(c1cc(Cc2n[nH]c(=O)c3ccccc23)ccc1F)N1CCN(C(=O)C2CC2)CC1 [Olaparib] (partner 8 µM)
Method in brief: (§1)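 Each reported value is a median over duplicate plates. It expresses relative viability: treated-well nuclei count divided by vehicle-well nuclei count. Lung cancer cell lines in 1536-well plates were dosed by pin tool a day after seeding, alone with one drug or with a fixed anchor-drug dose plus five library-drug doses (not always all listed) in √10 steps, and nuclei were counted after 5 days.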

[2] = compound: COc1cc2/c(=N/c3ccc(Br)cc3F)nc[nH]c2cc1OCC1CCN(C)CC1 [Vandetanib] + COc1cc2c(Oc3ccc(NC(=O)C4(C(=O)Nc5ccc(F)cc5)CC4)cc3F)ccnc2cc1OCCCN1CCOCC1 [Foretinib] (partner 0.25 µM)
Method in brief: as §1

[3] = compound: C#Cc1cccc(Nc2ncnc3cc(OC)c(OCCCCCCC(=O)NO)cc23)c1 [CUDC-101] + COc1cc2c(Oc3ccc(NC(=O)C4(C(=O)Nc5ccc(F)cc5)CC4)cc3F)ccnc2cc1OCCCN1CCOCC1 [Foretinib] (partner 0.25 µM)
Method in brief: as §1

[4] = compound: C#Cc1cccc(Nc2ncnc3cc(OC)c(OCCCCCCC(=O)NO)cc23)c1 [CUDC-101] + NC(=O)Nc1cc(-c2cccc(F)c2)sc1C(=O)N[C@H]1CCCNC1 [AZD7762] (partner 0.2 µM)
Method in brief: as §1

In the case of NCI-H358, the relative viability ([1]; first compound 0.005 µM) is reported as 0.413, the relative viability ([1]; first compound 0.01581 µM) is reported as 0.658 and the relative viability ([1]; first compound 0.05 µM) is reported as 0.653. The relative viability ([1]; first compound 0.1581 µM) was 0.698, the relative viability ([1]; first compound 0.5 µM) was 0.419 and the relative viability ([2]; first compound 0.02 µM) was 0.657. The relative viability ([2]; first compound 0.06325 µM) was 0.716, the relative viability ([2]; first compound 0.2 µM) was 0.649 and the relative viability ([2]; first compound 0.6325 µM) was 0.646. It also gave a relative viability ([2]; first compound 2 µM) of 0.332, a relative viability ([3]; first compound 0.01 µM) of 0.815 and a relative viability ([3]; first compound 0.03162 µM) of 0.565. The relative viability ([3]; first compound 0.1 µM) was 0.759, the relative viability ([3]; first compound 0.3162 µM) was 0.675 and the relative viability ([3]; first compound 1 µM) was 0.179. For the same cell line, the relative viability ([4]; first compound 0.01 µM) was 0.565, the relative viability ([4]; first compound 0.03162 µM) was 0.493 and the relative viability ([4]; first compound 0.1 µM) was 0.518. For the same cell line, the relative viability ([4]; first compound 0.3162 µM) was 0.261 and the relative viability ([4]; first compound 1 µM) was 0.237.

Work on NCI-H441 yielded a relative viability ([1]; first compound 0.005 µM) of 0.423, a relative viability ([1]; first compound 0.01581 µM) of 0.643 and a relative viability ([1]; first compound 0.05 µM) of 0.544. For the same cell line, the relative viability ([1]; first compound 0.1581 µM) was 0.683, the relative viability ([1]; first compound 0.5 µM) was 0.455 and the relative viability ([2]; first compound 0.02 µM) was 1.05. For the same cell line, the relative viability ([2]; first compound 0.06325 µM) was 0.816, the relative viability ([2]; first compound 0.2 µM) was 0.264 and the relative viability ([2]; first compound 0.6325 µM) was 0.978. It also gave a relative viability ([2]; first compound 2 µM) of 1.01, a relative viability ([3]; first compound 0.01 µM) of 0.976 and a relative viability ([3]; first compound 0.03162 µM) of 1.23. The relative viability ([3]; first compound 0.1 µM) was 1.05, the relative viability ([3]; first compound 0.3162 µM) was 0.978 and the relative viability ([3]; first compound 1 µM) was 0.937. It also gave a relative viability ([4]; first compound 0.01 µM) of 1.36, a relative viability ([4]; first compound 0.03162 µM) of 1.08 and a relative viability ([4]; first compound 0.1 µM) of 1.34. For the same cell line, the relative viability ([4]; first compound 0.3162 µM) was 1.37 and the relative viability ([4]; first compound 1 µM) was 1.07.

For NCI-H460, the relative viability ([1]; first compound 0.005 µM) was 0.4, the relative viability ([1]; first compound 0.01581 µM) was 0.502 and the relative viability ([1]; first compound 0.05 µM) was 0.43. For the same cell line, the relative viability ([1]; first compound 0.1581 µM) was 0.516, the relative viability ([1]; first compound 0.5 µM) was 0.333 and the relative viability ([2]; first compound 0.02 µM) was 0.934. It also gave a relative viability ([2]; first compound 0.06325 µM) of 0.992, a relative viability ([2]; first compound 0.2 µM) of 0.952 and a relative viability ([2]; first compound 0.6325 µM) of 0.953. The relative viability ([2]; first compound 2 µM) was 0.997, the relative viability ([3]; first compound 0.01 µM) was 0.991 and the relative viability ([3]; first compound 0.03162 µM) was 0.917. For the same cell line, the relative viability ([3]; first compound 0.1 µM) was 1.02, the relative viability ([3]; first compound 0.3162 µM) was 1.03 and the relative viability ([3]; first compound 1 µM) was 0.93. The relative viability ([4]; first compound 0.01 µM) was 0.651, the relative viability ([4]; first compound 0.03162 µM) was 0.531 and the relative viability ([4]; first compound 0.1 µM) was 0.564. The relative viability ([4]; first compound 0.3162 µM) was 0.589 and the relative viability ([4]; first compound 1 µM) was 0.476.

NCI-H596 gave a relative viability ([1]; first compound 0.005 µM) of 0.599, a relative viability ([1]; first compound 0.01581 µM) of 0.59 and a relative viability ([1]; first compound 0.05 µM) of 0.608. For the same cell line, the relative viability ([1]; first compound 0.1581 µM) was 0.632, the relative viability ([1]; first compound 0.5 µM) was 0.643 and the relative viability ([2]; first compound 0.02 µM) was 0.918. For the same cell line, the relative viability ([2]; first compound 0.06325 µM) was 0.785, the relative viability ([2]; first compound 0.2 µM) was 0.741 and the relative viability ([2]; first compound 0.6325 µM) was 0.838. The relative viability ([2]; first compound 2 µM) was 0.731, the relative viability ([3]; first compound 0.01 µM) was 0.862 and the relative viability ([3]; first compound 0.03162 µM) was 0.902. It also gave a relative viability ([3]; first compound 0.1 µM) of 0.787, a relative viability ([3]; first compound 0.3162 µM) of 0.752 and a relative viability ([3]; first compound 1 µM) of 0.729. It also gave a relative viability ([4]; first compound 0.01 µM) of 1.09, a relative viability ([4]; first compound 0.03162 µM) of 1.09 and a relative viability ([4]; first compound 0.1 µM) of 1.12. It also gave a relative viability ([4]; first compound 0.3162 µM) of 1.07 and a relative viability ([4]; first compound 1 µM) of 1.04.

Cell Line NCI-H647 has a relative viability ([1]; first compound 0.005 µM) of 0.423, a relative viability ([1]; first compound 0.01581 µM) of 0.536 and a relative viability ([1]; first compound 0.05 µM) of 0.583. It also gave a relative viability ([1]; first compound 0.1581 µM) of 0.572, a relative viability ([1]; first compound 0.5 µM) of 0.3 and a relative viability ([2]; first compound 0.02 µM) of 1.17. It also gave a relative viability ([2]; first compound 0.06325 µM) of 1.2, a relative viability ([2]; first compound 0.2 µM) of 0.259 and a relative viability ([2]; first compound 0.6325 µM) of 1.35. The relative viability ([2]; first compound 2 µM) was 1.21, the relative viability ([3]; first compound 0.01 µM) was 1.16 and the relative viability ([3]; first compound 0.03162 µM) was 1.11. For the same cell line, the relative viability ([3]; first compound 0.1 µM) was 1.14, the relative viability ([3]; first compound 0.3162 µM) was 1.21 and the relative viability ([3]; first compound 1 µM) was 0.877. It also gave a relative viability ([4]; first compound 0.01 µM) of 0.555, a relative viability ([4]; first compound 0.03162 µM) of 0.376 and a relative viability ([4]; first compound 0.1 µM) of 0.567. It also gave a relative viability ([4]; first compound 0.3162 µM) of 0.403 and a relative viability ([4]; first compound 1 µM) of 0.176.

NCI-H650 gave a relative viability ([1]; first compound 0.005 µM) of 0.412, a relative viability ([1]; first compound 0.01581 µM) of 0.369 and a relative viability ([1]; first compound 0.05 µM) of 0.441. It also gave a relative viability ([1]; first compound 0.1581 µM) of 0.345, a relative viability ([1]; first compound 0.5 µM) of 0.363 and a relative viability ([2]; first compound 0.02 µM) of 1.04. It also gave a relative viability ([2]; first compound 0.06325 µM) of 1.03, a relative viability ([2]; first compound 0.6325 µM) of 1.02 and a relative viability ([2]; first compound 2 µM) of 0.98. For the same cell line, the relative viability ([3]; first compound 0.01 µM) was 1.07, the relative viability ([3]; first compound 0.03162 µM) was 1.01 and the relative viability ([3]; first compound 0.1 µM) was 1.03. It also gave a relative viability ([3]; first compound 0.3162 µM) of 1.15, a relative viability ([3]; first compound 1 µM) of 0.801 and a relative viability ([4]; first compound 0.01 µM) of 1.25. It also gave a relative viability ([4]; first compound 0.03162 µM) of 0.835, a relative viability ([4]; first compound 0.1 µM) of 1.03 and a relative viability ([4]; first compound 0.3162 µM) of 0.968. It also gave a relative viability ([4]; first compound 1 µM) of 0.848.

NCI-H727 gave a relative viability ([1]; first compound 0.005 µM) of 0.734, a relative viability ([1]; first compound 0.01581 µM) of 0.622 and a relative viability ([1]; first compound 0.05 µM) of 0.806. The relative viability ([1]; first compound 0.1581 µM) was 0.746, the relative viability ([1]; first compound 0.5 µM) was 0.679 and the relative viability ([2]; first compound 0.02 µM) was 0.973. The relative viability ([2]; first compound 0.06325 µM) was 0.831, the relative viability ([2]; first compound 0.2 µM) was 0.539 and the relative viability ([2]; first compound 0.6325 µM) was 1.18. For the same cell line, the relative viability ([2]; first compound 2 µM) was 0.674, the relative viability ([3]; first compound 0.01 µM) was 0.975 and the relative viability ([3]; first compound 0.03162 µM) was 0.85. For the same cell line, the relative viability ([3]; first compound 0.1 µM) was 0.685, the relative viability ([3]; first compound 0.3162 µM) was 0.778 and the relative viability ([3]; first compound 1 µM) was 0.424. The relative viability ([4]; first compound 0.01 µM) was 0.627, the relative viability ([4]; first compound 0.03162 µM) was 0.403 and the relative viability ([4]; first compound 0.1 µM) was 0.562. The relative viability ([4]; first compound 0.3162 µM) was 0.619 and the relative viability ([4]; first compound 1 µM) was 0.476.

NCI-H838 showed a relative viability ([1]; first compound 0.005 µM) of 0.622, a relative viability ([1]; first compound 0.01581 µM) of 0.829 and a relative viability ([1]; first compound 0.05 µM) of 0.731. It also gave a relative viability ([1]; first compound 0.1581 µM) of 0.773, a relative viability ([1]; first compound 0.5 µM) of 0.546 and a relative viability ([2]; first compound 0.02 µM) of 1.08. The relative viability ([2]; first compound 0.06325 µM) was 1.01, the relative viability ([2]; first compound 0.2 µM) was 0.282 and the relative viability ([2]; first compound 0.6325 µM) was 1.06. For the same cell line, the relative viability ([2]; first compound 2 µM) was 1.05, the relative viability ([3]; first compound 0.01 µM) was 1.04 and the relative viability ([3]; first compound 0.03162 µM) was 1.02. It also gave a relative viability ([3]; first compound 0.1 µM) of 1.08, a relative viability ([3]; first compound 0.3162 µM) of 1.23 and a relative viability ([3]; first compound 1 µM) of 0.862. For the same cell line, the relative viability ([4]; first compound 0.01 µM) was 0.939, the relative viability ([4]; first compound 0.03162 µM) was 0.907 and the relative viability ([4]; first compound 0.1 µM) was 0.94. For the same cell line, the relative viability ([4]; first compound 0.3162 µM) was 0.952 and the relative viability ([4]; first compound 1 µM) was 0.888.
